Tests used:
Format in all cases: cell-based, human
[1] = tested on: ASCs; test: ASC proliferation assay: viable cell density (trypan blue count) after thaw of pretreated ASCs; conditions: for number of viable cells: ASCs pretreated with 6 mM NAC before freezing
Method: ASCs from donor A were thawed by warming the vials in a 37° C. bath and diluting the freezing medium containing DMSO with fresh complete DMEM (DMEM/F-12 media—GlutaMAX™-I, Gibco, supplemented with 100 μg/mL penicillin/streptomycin and 10% FBS). Cells were centrifuged at 450 g for 6 minutes at room temperature to eliminate leftover DMSO and plated in T-175 flasks at 20.000 cells/cm^2 in complete DMEM. 24 hours post-thaw, the cells were treated with the suitable concentrations of the compounds indicated in the table below for 24 hours: Following the pretreatment step, the medium was removed, the cells were washed with PBS and trypsinized using trypsin-EDTA 0.25% (ThermoFisher) for 8 minutes at 37° C. After trypsin inactivation with complete DMEM, cells were harvested and centrifuged prior to resuspension in freezing medium (FBS with 10% DMSO), and frozen into 500,000 or 1 million cells per vial and stored in liquid nitrogen for further use. Specifically, the cells were frozen at −80° C. for 24 hours in a Cool Cell® device (BioCision) and then transferred to a liquid nitrogen storage container. All experiments were performed in incubators and 37° C., 5% CO2. ASCs pretreated with NAC according to the methods described in Example 2 from donor A or donor B final drug substance (FDS) were thawed by warming the vials in a 37° C. bath and quickly diluting the freezing medium containing DMSO (FBS with 10% DMSO) with fresh complete DMEM. Cells were centrifuged at 450 g for 6 minutes at room temperature to eliminate leftover DMSO, and plated in P6-well plates (Falcon #353046) in triplicates at […] in 5 mL of complete DMEM per well. Cells were washed with 1×PBS and trypsinized using trypsin-EDTA 0.25% (ThermoFisher) for 8 minutes at 37° C. After trypsin inactivation using complete DMEM, cells were harvested, centrifuged and resuspended in fresh DMEM; triplicate wells were unified as a single sample for counting purposes. Cells were counted in triplicates at 24 hours, 96 hours and 7 days after plating using an Invitrogen Countess Automated Cell Counter (Invitrogen) and adding trypan blue as a viability stain (FIG. 4A). The calculation of cell density was done using the count of viable ASC (negative for trypan blue) per surface unit (cm^2).

[2] = tested on: ASCs; test: MTS assay after post-thaw seeding of ASCs pretreated with compounds prior to freezing; conditions: for increase in mitochondrial activity compared to non-treated cells (MTS, 490 nm): pretreatment with 6 mM NAC
Method: ASCs from donor A were thawed by warming the vials in a 37° C. bath and diluting the freezing medium containing DMSO with fresh complete DMEM (DMEM/F-12 media—GlutaMAX™-I, Gibco, supplemented with 100 μg/mL penicillin/streptomycin and 10% FBS). Cells were centrifuged at 450 g for 6 minutes at room temperature to eliminate leftover DMSO and plated in T-175 flasks at 20.000 cells/cm^2 in complete DMEM.
A 600 mM stock of NAC (SIGMA) was prepared in Milli-Q water (Millipore). This stock was used for pre-treatment and post-treatment by adding directly 50 μL stock solution per well into 5 mL of medium, making a final concentration of 6 mM. For 2 mM, only 16.7 μL were added per well, and in the case of 12 mM, 100 μL of stock were added. DMSO was used as the vehicle for sc79 and LY294.
Following the pretreatment step, the medium was removed, the cells were washed with PBS and trypsinized using trypsin-EDTA 0.25% (ThermoFisher) for 8 minutes at 37° C. After trypsin inactivation with complete DMEM, cells were harvested and centrifuged prior to resuspension in freezing medium (FBS with 10% DMSO), and frozen into 500,000 or 1 million cells per vial and stored in liquid nitrogen for further use. Specifically, the cells were frozen at −80° C. for 24 hours in a Cool Cell® device (BioCision) and then transferred to a liquid nitrogen storage container. All experiments were performed in incubators and 37° C., 5% CO2.
[…] The CellTiter 96° Aqueous One Solution Cell Proliferation Assay is a colorimetric method for determining the number of viable cells. The CellTiter 96° Aqueous One Solution reagent contains a tetrazolium compound [3-(4,5-dimethylthiazol-2-yl)-5-(3-carboxymethoxyphenyl)-2-(4-sulfophenyl)-2H-tetrazolium, MTS] and an electron coupling reagent (phenazine ethosulfate; PES). The MTS tetrazolium compound is bioreduced by cells—presumably by NADPH or NADH produced by dehydrogenase enzymes in metabolically active cells—into a coloured formazan product that is soluble in tissue culture medium.
Briefly, 40 μL of the reagent was added to 200 μL of complete DMEM in each well and absorbance was measured after 2-3 hours at 490 nm using a […]. Each condition was measured in 6 technical repeats. The MTS assay results are presented as percentage of absorbance at 490 nm relative to the non-treated (NT) cells.

[3] = tested on: mature dendritic cells (mDC); test: Phagocytosis of Staphylococcus aureus particles by mDC co-cultured with ASCs; conditions: NAC-pretreated ASCs, non-contact co-culture (FIG. 12)
Method: After differentiation in monoculture or co-culture in vitro (the differentiation conditions, including the cytokines used, concentrations and times of differentiation, are provided in Example 7), macrophages and mDC were harvested using 0.05% Trypsin-EDTA for 10 minutes at 37° C. The phagocytic potential of polarized macrophages or mDC was assessed using pHRodo Red-conjugated S. aureus particles (Life Technologies #A10010) following manufacturer's instructions. Briefly, 50,000 mDC were transferred to a 96-well U bottom wells (Corning #3799) and the cells were rested for 60 minutes in RPMIc. Lyophilized pHRodo conjugated particles were reconstituted in 1 mL of RPMIc per vial prior to use, and particles were sonicated for 5 minutes at 20% amplitude. Then, 50 μL of pHRodo […] were added per well and the cells were incubated for 60 minutes in normoxia at 37° C. Afterwards, phagocytosis was stopped on ice and cells were washed and stained with 5 μL 7-aminoactinomycin D (7AAD) prior to FACS analysis in Fortessa cytometer (BD). Negative controls for phagocytosis were cells without pHRodo reagent. Results were analysed in FlowJo software. The intensity of the fluorescence in the PE channel is proportional to the amount of bacterial particles phagocytosed per cell.

SMILES: CC(=O)N[C@@H](CS)C(=O)O [NAC, N-Acetylcysteine]
- number of cells counted versus non-treated control ([1]; 6 mM NAC pretreatment, 24 hours and 4 days post-thaw): increased the number of cells counted at 24 hours and 4 days
- cell number by cell density versus non-treated ([1]; 6 mM NAC pretreatment, 24 hours post-seeding after thaw (FIG. 3)): increased cell numbers
- cell numbers versus non-treated, two donors ([1]; 6 mM NAC pretreatment, donor A and donor B, from 24 hours post-seeding, maintained for a week (FIG. 5)): increase in cell numbers
- post-thaw recovery (viable adhered cell number over seeding density) ([1]; ASCs pretreated with 6 mM NAC (FIG. 4A), non-treated cells not recovered at 1 day): recovered after 1 day of post-thaw culture
- number of viable cells ([1]; 1 day of culture post-thaw (FIG. 4A)): ~5,000 cells/cm^2
- number of viable cells ([1]; 4 days of culture post-thaw (FIG. 4A)): ~12,500 cells/cm^2
- improvement of growth rate relative to non-treated cells ([1]; ASCs pretreated with 6 mM NAC, between days 1 and 4 of post-thaw culture): about 1.25 fold
- growth rate ([1]; ASCs pretreated with 6 mM NAC, between days 1 and 4 of post-thaw culture (FIG. 4A)): approximately 2500 cells/cm^2/day
- cell number by MTS assay versus non-treated ([2]; 6 mM NAC pretreatment for 24 hours, 24 hours post-seeding after thaw (FIG. 2)): increased cell numbers
- increase of mitochondrial activity after NAC pretreatment (MTS) ([2]; 6 mM NAC pretreatment, FIGS. 4B & C (24 and 96 hours post-thaw)): 15-20%
- increase in mitochondrial activity compared to non-treated cells (MTS, 490 nm) ([2]; 24 hours culture post-thaw (FIG. 4B)): greater than 35%
- increase in mitochondrial activity compared to non-treated cells (MTS, 490 nm) ([2]; 96 hours culture post-thaw (FIG. 4C)): greater than 15%
- ability of ASCs to increase phagocytosis potential of mDCs [3]: did not alter their ability to increase the phagocytosis potential of mDCs

Reference: patent US20220104481A1, “CRYOPRESERVATION OF STEM CELLS” (TiGenix, S.A.U., priority 2019, published 2022)
